From patent publication US20110028554A1, “PHARMACEUTICAL COMPOSITIONS COMPRISING DIIODOTHYRONINE AND THEIR THERAPEUTIC USE” (UNIVERSITE JOSEPH FOURIER, priority 2007, published 2011)

How the values were obtained:
[1] = Indirect calorimetry (energy expenditure, respiratory quotient) in Wistar rats; assay type: in vivo; details: low dosage 2.5 μg/100 g BW
Text: Energy expenditure as well as the nature of substrate oxidized (carbohydrates or lipids) were investigated by indirect calorimetry. This principle is based on the determinations of CO2, release (VCO2) and O2 consumption (VO2) by each animal. It assumes that O2 is entirely involved in substrate oxidation in the respiratory chain (leading to water production) while CO2 release is related to substrate decarboxylation (in the Kreb's cycle). These measurements allow assessing energy expenditure (EE) and respiratory quotient ([…], RQ). EE represent the absolute energy dissipation during rest and activity. RQ is a relative measurement indicating the ratio of carbohydrate versus lipid involved in oxidative pathway. A ratio of 1.0 indicates exclusive carbohydrate oxidation while a ratio of 0.7 indicates exclusive lipid oxidation. Each value between these two extreme values indicates the relative proportion of each substrate (of note protein oxidation was not evaluated). As an example, RQ approaches 0.7 during fasting, indicating lipid oxidation, conversely after feeding RQ increases close to 1 indicating carbohydrate oxidation resulting from food intake and blood insulin rise. Likewise, animals fed high-carbohydrate diets have higher RQs than those fed high-fat diets.
The indirect calorimetry system (Panlab, Barcelona, Spain) consists of cages, pumps, flow controllers, valves, and analyzers. […]

[2] = Body weight and food intake of Zucker rats; assay type: in vivo; details: Zucker (Fa/Fa) rats, 30 days, FIG. 8 legend high dosage 25 μg/100 g BW
Description: Adult male rat bred in the animal room facilities of Laboratory of Fundamental and Applied. Bioenergetics (Wistar strain) or purchased from Charles-River Laboratories, Domaine des oncins, L'ARBRESLE France [(genetically obese normoglycemic (Zucker or Fa/Fa) or diabetic (ZDF)] were caged individually in stainless steel hanging cages and maintained in a 22° C., 50±10% relative humidity and 12 h:12 h light:dark environment. All animals were fed ad libitum with a standard rat chow (Safe A04, Villemoisson, France) and tap water. Body mass and food intake were recorded twice/thrice a week and fresh food was provided, at the same time to ensure minimal disturbance to the animals' food, behavior.
Eight-week old rats (300 g±10 g) were anesthetized by simultaneous intraperitoneal injection of diazepam 4 mg/kg and ketamine 100 mg/kg. In order to maintain body temperature during the surgery (10 min), animals were placed on a warm blanket. After interscapular shaving, a small incision of 0.5 cm of the skin allows the subcutaneous implantation of a small pellet (containing rT3 or 3′,3-T2) with a 10-gauge precision trochar. The pellets, manufactured by Innovative Research of America (Sarasota, Fla., USA) are constituted of a biodegradable matrix that effectively and continuously release the active product in the animal. […]

[3] = Body composition of genetically obese Zucker rats; assay type: in vivo, Zucker (Fa/Fa) rats; details: FIG. 9, high dosage 25 μg/100 g BW
Text: At the end of the experimental period, animals were sacrificed by decapitation, in order to avoid the well-known effects of general anesthetics on mitochondrial metabolism. Blood, samples were immediately collected and plasma was frozen for subsequent determination of serum metabolites and hormones. Liver, muscles and fat depots were quickly excised and weighed. Liver median lobe was rapidly freeze-clamped. Muscles (plantaris, soleus and gastrocnemius) were frozen in isopentane precooled in liquid nitrogen. Mesenteric fat consisted, of adipose tissue surrounding the gastro-intestinal tract from the gastro-oesophageal sphincter to the end of the rectum with special care taken in distinguishing and removing the pancreas. Retroperitoneal fat pad was taken as the distinct depot behind each kidney along the lumbar muscles. Epididymal fat consisted, of adipose tissue on top of the epididymis. For subcutaneous depot measurement, a rectangular piece of skin was taken on the right side of each animal from the median line of the abdomen between the spine and the right hip to the first rib. Interscapular brown adipose tissue was removed and dissected free from adjacent muscles and white adipose tissue. The heart ventricles, the right kidney and the spleen were also excised, weighed and frozen.

liver mitochondria = assay: Oxidative phosphorylation efficiency (ATP/O) in liver mitochondria of treated Wistar rats; assay type: in vivo; details: 3 weeks continuous subcutaneous 250 μg/kg, fatty acids (palmitoyl-, octanoyl-) and succinate as substrates
Description: Effect of 3,5-T2 on oxidative phosphorylation efficiency investigated in liver mitochondria of Wistar rats isolated after 3 weeks of continuous treatment administered subcutaneously (250 μg/kg).
FIGS. 20A, 20B, 20C and 20D represent the ratio between ATP synthesis (nmol/min/g prot) and liver mitochondrial oxygen consumption (nmol/min/g prot) (P/O) as a function of liver mitochondrial oxygen consumption.
All measurements were performed using mitochondria (1.0 mg mitochondrial protein/ml) incubated with various substrates: • GM: glutamate/malate (5 mM/2.5 mM) • Palm: palmitoyl carnitine (55 μM) • Octa: octanoyl carnitine (100 μM) and • Succ+Rot: succinate/rotenone (5 mM/5 μM)
ATP/O ratios with 5 mM glutamate/2.5 mM malate/5 mM succinate or octanoyl-carnitine (100 μM) as respiratory substrates were determined from the ATP synthesis rate (JATP) versus respiratory rate JO2 with an ADP regenerating system based, on hexokinase (EC 2.7.1.1) plus glucose. JATP and JO2 were measured as described above in a medium containing 125 mM KCl, 1 mM EGTA, 5 mM Tris-Pi, 20 mM Tris-HCl, 0.1% fat free BSA (pH 7.2). JATP was determined from glucose 6-phosphate formation in presence of 20 mM glucose, 1 mM MgCl2, and 125 μM ATP. JO2 and JATP were modulated by addition of increasing concentrations of hexokinase (Nogueira et al, J Bioenerg Biomemb., 34:55-66, 2002).

[4] = Blood glucose in Goto-Kakizaki (GK) rats; assay type: in vivo; details: low dosage 2.5 μg/100 g BW, 10 days, n=5, p<0.01
Description: Rats were genetically obese normoglycemic (Zucker or Fa/Fa), 10-11 week-old diabetic rats (ZDF) or genetic non-overweight diabetic (type 2 diabetes) rats (Goto-Kakizaki (GK) model).
The day of the study, after a fasted period overnight (18 h), blood samplings will be taken in awake rats from the tail vein.
Glucose and 3-hydroxybutyrate (3-HB) were measured, enzymatically and non esterified fatty acid (NEFA) by colorimetric assay (Wako Chemicals).

[5] = normal rats, high-fat diet, daily peritoneal injection; cited from earlier work

SMILES: N[C@@H](Cc1cc(I)c(Oc2ccc(O)cc2)c(I)c1)C(=O)O [3,5-T2, 3,5-diiodothyronine]
- Respiratory quotient (RQ) vs placebo [1]: lower than RQ with placebo treatment during the day and the first part of the night
- Food intake vs placebo [2]: significantly lower as compared to placebo
- Animal growth (body weight) vs placebo ([2]; text says low 3,5-T2 group): no significant growth
- Absolute values of fat deposit, all localizations, vs placebo [3]: significantly lower
- Brown adipose tissue vs placebo [3]: significantly increased
- Muscle mass vs placebo [3]: not affected
- Efficiency of oxidative phosphorylation (ATP/oxygen ratio) (liver mitochondria): lowers the yield of ATP synthesis
- Change in blood glucose concentration as compared to control animals [4]: −24±6%
- Fat deposit vs untreated rats [5]: less fat deposit
- Weight gain vs untreated rats [5]: gained less weight
